Reference: patent US11180474B2 (BRISTOL-MYERS SQUIBB COMPANY, priority 2016, dated 2021)
Counter-ions that a name gives are not always drawn.

Key:
[1] = biological target: T1, human TLR8 (Homo sapiens, UniProt Q9NR97); assay: TLR8 inhibition reporter assay (HEK-Blue cells, SEAP reporter, R848 stimulation); type: cell-based; details: HEK-Blue cells overexpressing human TLR8, R848 15.9 μM
T1 construct: host or cells: HEK-Blue cells
T1 sequence (Q9NR97 27-1041): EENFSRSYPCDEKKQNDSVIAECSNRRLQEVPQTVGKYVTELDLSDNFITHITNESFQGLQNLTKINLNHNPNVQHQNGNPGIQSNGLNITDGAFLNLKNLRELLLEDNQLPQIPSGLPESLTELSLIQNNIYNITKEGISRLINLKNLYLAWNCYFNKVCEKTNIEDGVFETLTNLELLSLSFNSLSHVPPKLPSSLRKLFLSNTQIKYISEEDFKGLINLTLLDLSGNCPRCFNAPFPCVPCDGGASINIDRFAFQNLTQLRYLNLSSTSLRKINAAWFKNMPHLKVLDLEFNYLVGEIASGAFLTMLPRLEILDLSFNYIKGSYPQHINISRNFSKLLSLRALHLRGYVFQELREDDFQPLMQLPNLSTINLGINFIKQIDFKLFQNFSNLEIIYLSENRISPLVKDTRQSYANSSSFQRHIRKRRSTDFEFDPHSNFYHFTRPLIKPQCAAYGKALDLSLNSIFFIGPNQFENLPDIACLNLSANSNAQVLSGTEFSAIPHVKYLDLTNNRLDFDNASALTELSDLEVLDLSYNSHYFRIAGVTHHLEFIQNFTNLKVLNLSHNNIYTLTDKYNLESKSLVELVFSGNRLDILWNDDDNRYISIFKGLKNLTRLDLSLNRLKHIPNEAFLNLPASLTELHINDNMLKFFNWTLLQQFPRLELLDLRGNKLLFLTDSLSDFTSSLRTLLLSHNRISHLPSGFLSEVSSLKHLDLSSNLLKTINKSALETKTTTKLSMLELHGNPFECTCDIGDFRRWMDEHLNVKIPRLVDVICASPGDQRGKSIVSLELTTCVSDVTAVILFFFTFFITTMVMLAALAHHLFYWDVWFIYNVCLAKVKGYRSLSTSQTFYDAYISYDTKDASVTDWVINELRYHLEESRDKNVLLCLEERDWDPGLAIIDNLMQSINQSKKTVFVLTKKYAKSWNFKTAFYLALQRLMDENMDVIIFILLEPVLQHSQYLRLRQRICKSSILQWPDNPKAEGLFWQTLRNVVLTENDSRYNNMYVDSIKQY
Summary of the method: (§1)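 In this cell reporter format, test compounds at 0.05 nM-50 μM final incubate 22 h with seeded cells (TLR7 15000, TLR8 20,000 per well). SEAP read-out by HEK-Blue Detection medium yields % inhibition relative to agonist/DMSO and known-inhibitor wells.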

[2] = biological target: T2, human TLR7 (Homo sapiens, UniProt Q9NYK1); assay: TLR7 inhibition reporter assay (HEK-Blue cells, SEAP reporter, gardiquimod stimulation); type: cell-based; details: HEK-Blue cells overexpressing human TLR7, gardiquimod 7.5 μM
T2 construct: host or cells: HEK-Blue cells
T2 sequence (Q9NYK1 27-1049): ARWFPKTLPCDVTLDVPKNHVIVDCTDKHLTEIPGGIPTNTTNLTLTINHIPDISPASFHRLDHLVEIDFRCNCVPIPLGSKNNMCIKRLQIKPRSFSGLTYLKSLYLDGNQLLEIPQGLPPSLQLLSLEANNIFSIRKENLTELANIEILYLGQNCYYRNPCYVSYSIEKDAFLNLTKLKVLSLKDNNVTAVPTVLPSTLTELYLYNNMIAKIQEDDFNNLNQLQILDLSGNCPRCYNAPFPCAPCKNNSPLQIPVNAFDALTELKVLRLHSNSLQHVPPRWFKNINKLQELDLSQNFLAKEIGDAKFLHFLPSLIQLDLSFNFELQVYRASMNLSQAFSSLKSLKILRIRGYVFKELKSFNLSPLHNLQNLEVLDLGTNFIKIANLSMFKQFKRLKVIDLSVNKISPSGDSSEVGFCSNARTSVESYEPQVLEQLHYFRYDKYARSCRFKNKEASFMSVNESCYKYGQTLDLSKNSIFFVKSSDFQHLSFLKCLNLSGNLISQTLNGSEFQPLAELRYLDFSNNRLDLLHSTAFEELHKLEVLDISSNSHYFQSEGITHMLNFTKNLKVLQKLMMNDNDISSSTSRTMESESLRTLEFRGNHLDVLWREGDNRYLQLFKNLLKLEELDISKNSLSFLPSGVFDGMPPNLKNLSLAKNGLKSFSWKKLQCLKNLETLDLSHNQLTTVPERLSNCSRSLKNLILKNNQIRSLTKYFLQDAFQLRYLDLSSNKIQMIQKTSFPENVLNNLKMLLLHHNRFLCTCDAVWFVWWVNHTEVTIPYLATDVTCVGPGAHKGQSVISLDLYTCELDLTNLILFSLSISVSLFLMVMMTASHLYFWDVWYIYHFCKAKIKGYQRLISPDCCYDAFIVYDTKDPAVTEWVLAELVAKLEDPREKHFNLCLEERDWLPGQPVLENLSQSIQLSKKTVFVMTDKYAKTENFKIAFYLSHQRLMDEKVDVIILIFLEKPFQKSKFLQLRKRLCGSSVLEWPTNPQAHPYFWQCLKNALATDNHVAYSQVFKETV
Summary of the method: as §1

Q: `CCC(CC)NC(=O)CN1CCC(c2ccc3[nH]c(-c4ccc(OC)c(OC)c4)c(CC(F)(F)F)c3c2)CC1` [Example 378, 2-(4-(2-(3,4-dimethoxyphenyl)-3-(2,2,2-trifluoroethyl)-1H-indol-5-yl)piperidin-1-yl)-N-(pentan-3-yl)acetamide] was tested. Which IC50 [1] did it give?
A: 451 nM

Q: What about the IC50 [2] of the same molecule?
A: 622 nM

Q: For `COc1ccc(-c2[nH]c3ccc(C4CCN(C(=O)CCC(F)(F)F)CC4)cc3c2CC(F)(F)F)cc1OC` [Example 350, 1-(4-(2-(3,4-dimethoxyphenyl)-3-(2,2,2-trifluoroethyl)-1H-indol-5-yl)piperidin-1-yl)-4,4,4-trifluorobutan-1-one], which IC50 [1] is on record?
A: 2050 nM

Q: And the IC50 [2]?
A: 624 nM

Q: `COc1ccc(-c2[nH]c3ccc(C4CCNCC4F)cc3c2C(C)C)cc1OC` (single isomer, unassigned) [Example 324, 2-(3,4-dimethoxyphenyl)-5-(3-fluoropiperidin-4-yl)-3-isopropyl-1H-indole] was tested. Which IC50 [1] did it give?
A: 20 nM

Q: And the IC50 [2]?
A: 51 nM

Q: Which IC50 [1] does the source give for `COc1ccc(-c2[nH]c3ccc(C4CCN(CC(=O)N5CCN(C(C)C)CC5)CC4)cc3c2CC(F)(F)F)cc1OC` [Example 362, 2-(4-(2-(3,4-dimethoxyphenyl)-3-(2,2,2-trifluoroethyl)-1H-indol-5-yl)piperidin-1-yl)-1-(4-isopropylpiperazin-1-yl)ethan-1-one] here?
A: 109 nM

Q: And the IC50 [2]?
A: 65 nM

Q: With `CCc1c(-c2ccc(OC)c(OC)c2)[nH]c2cc(C)c(C3CCNCC3)cc12` [Example 396, 2-(3,4-dimethoxyphenyl)-3-ethyl-6-methyl-5-(piperidin-4-yl)-1H-indole, HCl] as the molecule, how does the IC50 [1] read?
A: 295 nM

Q: And the IC50 [2]?
A: 47 nM

Q: `COc1ccc(-c2[nH]c3ccc(C4CCN(CC(=O)NCCN5CCCC5)CC4)cc3c2CC(F)(F)F)cc1OC` [Example 375, 2-(4-(2-(3,4-dimethoxyphenyl)-3-(2,2,2-trifluoroethyl)-1H-indol-5-yl)piperidin-1-yl)-N-(2-(pyrrolidin-1-yl)ethyl)acetamide] was tested. Which IC50 [1] did it give?
A: 117 nM

Q: What about the IC50 [2] of the same molecule?
A: 29 nM

Q: With `COc1ccc(-c2[nH]c3ccc(C4CCN(C(=O)CCN(C)C)CC4)cc3c2CC(F)(F)F)cc1OC` [Example 340, 1-(4-(2-(3,4-dimethoxyphenyl)-3-(2,2,2-trifluoroethyl)-1H-indol-5-yl)piperidin-1-yl)-3-(dimethylamino)propan-1-one] as the molecule, how does the IC50 [1] read?
A: 32 nM

Q: What about the IC50 [2] of the same molecule?
A: 22 nM

Q: How did the IC50 [1] turn out when `COc1ccc(-c2[nH]c3ccc(C4CCN(C(=O)Cc5cccnc5)CC4)cc3c2CC(F)(F)F)cc1OC` [Example 335, 1-(4-(2-(3,4-dimethoxyphenyl)-3-(2,2,2-trifluoroethyl)-1H-indol-5-yl)piperidin-1-yl)-2-(pyridin-3-yl)ethan-1-one] was run?
A: 632 nM

Q: And the IC50 [2]?
A: 331 nM

Q: With `COc1ccc(-c2[nH]c3ccc(C4CCN(CC(=O)NCCS(=O)(=O)O)CC4)cc3c2CC(F)(F)F)cc1OC` [Example 386, 2-(2-(4-(2-(3,4-dimethoxyphenyl)-3-(2,2,2-trifluoroethyl)-1H-indol-5-yl)piperidin-1-yl)acetamido)ethane-1-sulfonic acid] as the molecule, how does the IC50 [1] read?
A: 590 nM

Q: What about the IC50 [2] of the same molecule?
A: 557 nM

Q: With `COc1ccc(-c2[nH]c3ccc(C4CCN(CC(=O)N5CCC(N(C)C)CC5)CC4)cc3c2CC(F)(F)F)cc1OC` [Example 364, 2-(4-(2-(3,4-dimethoxyphenyl)-3-(2,2,2-trifluoroethyl)-1H-indol-5-yl)piperidin-1-yl)-1-(4-(dimethylamino)piperidin-1-yl)ethan-1-one] as the molecule, how does the IC50 [1] read?
A: 76 nM

Q: And the IC50 [2]?
A: 23 nM

Q: What does the source list for `COc1ccc(-c2[nH]c3ccc(C4CCN(CC(=O)N5CCC(N6CCN(C)CC6)CC5)CC4)cc3c2CC(F)(F)F)cc1OC` [Example 363, 2-(4-(2-(3,4-dimethoxyphenyl)-3-(2,2,2-trifluoroethyl)-1H-indol-5-yl)piperidin-1-yl)-1-(4-(4-methylpiperazin-1-yl)piperidin-1-yl) ethan-1-one]?
A: IC50 [1]: 44 nM; IC50 [2]: 8 nM

Q: What does the source list for `COc1ccc(-c2[nH]c3ccc(C4CCN(C(=O)Cc5cnccn5)CC4)cc3c2CC(F)(F)F)cc1OC` [Example 342, 1-(4-(2-(3,4-dimethoxyphenyl)-3-(2,2,2-trifluoroethyl)-1H-indol-5-yl)piperidin-1-yl)-2-(pyrazin-2-yl)ethan-1-one]?
A: IC50 [1]: 591 nM; IC50 [2]: 240 nM

Q: Which results are given for `COc1ccc(-c2[nH]c3ccc(C4CCN(C(=O)CN[C@H](C)C(C)C)CC4)cc3c2C2CCOCC2)cc1OC` [Example 394, (R)-1-(4-(2-(3,4-dimethoxyphenyl)-3-(tetrahydro-2H-pyran-4-yl)-1H-indol-5-yl)piperidin-1-yl)-2-((3-methylbutan-2-yl)amino)ethan-1-one]?
A: IC50 [1]: 660 nM; IC50 [2]: 1390 nM

Q: `COc1ccc(-c2[nH]c3ccc(C4CCN(CC(=O)NCCCCN5CCCC5)CC4)cc3c2CC(F)(F)F)cc1OC` [Example 388, 2-(4-(2-(3,4-dimethoxyphenyl)-3-(2,2,2-trifluoroethyl)-1H-indol-5-yl)piperidin-1-yl)-N-(4-(pyrrolidin-1-yl)butyl)acetamide] was tested. Which IC50 [1] did it give?
A: 40 nM

Q: And the IC50 [2]?
A: 9 nM

Q: What does the source list for `COc1ccc(-c2[nH]c3ccc(C4CCN(C(=O)CN(C)C)CC4)cc3c2C(O)C(F)(F)F)cc1OC` (centres unmarked) [Example 395, 1-(4-(2-(3,4-dimethoxyphenyl)-3-(2,2,2-trifluoro-1-hydroxyethyl)-1H-indol-5-yl)piperidin-1-yl)-2-(dimethylamino)ethan-1-one]?
A: IC50 [1]: 438 nM; IC50 [2]: 61 nM

Q: For `COc1ccc(-c2[nH]c3ccc(C4CCN(C(=O)CCCN(C)C)CC4)cc3c2CC(F)(F)F)cc1OC` [Example 351, 1-(4-(2-(3,4-dimethoxyphenyl)-3-(2,2,2-trifluoroethyl)-1H-indol-5-yl)piperidin-1-yl)-4-(dimethylamino)butan-1-one], which IC50 [1] is on record?
A: 57 nM

Q: What about the IC50 [2] of the same molecule?
A: 17 nM

Q: `COc1ccc(-c2[nH]c3ccc(C4CCN(CC(=O)N5CC[C@H](N(C)C)C5)CC4)cc3c2CC(F)(F)F)cc1OC` [Example 374, (S)-2-(4-(2-(3,4-dimethoxyphenyl)-3-(2,2,2-trifluoroethyl)-1H-indol-5-yl)piperidin-1-yl)-1-(3-(dimethylamino)pyrrolidin-1-yl) ethan-1-one] was tested. Which IC50 [1] did it give?
A: 35 nM

Q: What about the IC50 [2] of the same molecule?
A: 9 nM

Q: With `CCN(CC)C(=O)C1CCCN(CC(=O)N2CCC(c3ccc4[nH]c(-c5ccc(OC)c(OC)c5)c(C5CCOCC5)c4c3)CC2)C1` (centres unmarked) [Example 391, 1-(2-(4-(2-(3,4-dimethoxyphenyl)-3-(tetrahydro-2H-pyran-4-yl)-1H-indol-5-yl)piperidin-1-yl)-2-oxoethyl)-N,N-diethylpiperidine-3-carboxamide] as the molecule, how does the IC50 [1] read?
A: 356 nM

Q: And the IC50 [2]?
A: 626 nM

Q: For `COc1ccc(-c2[nH]c3ccc(C4CCN(CC(=O)NCCNC(C)=O)CC4)cc3c2CC(F)(F)F)cc1OC` [Example 379, N-(2-acetamidoethyl)-2-(4-(2-(3,4-dimethoxyphenyl)-3-(2,2,2-trifluoroethyl)-1H-indol-5-yl)piperidin-1-yl)acetamide], which IC50 [1] is on record?
A: 39 nM

Q: What about the IC50 [2] of the same molecule?
A: 94 nM
